Results reported in patent US7371536B2, “Methods for transporting vitamin C” (priority 1999, dated 2008).

Experiments:
Type in all cases: cell-based
human SVCT1 [1] = target: T1, human SVCT1 (Homo sapiens, UniProt Q9UHI7); test: L-[14C]ascorbic acid radiotracer uptake in Xenopus oocytes expressing human SVCT1
T1 construct: expressed in transfected cells; host or cells: Xenopus laevis oocytes injected with cRNA (vector pTLN2)
Description: Functional characterization in Xenopus oocytes—SVCT1 and SVCT2 cDNAs were subcloned into the pTLN2 vector (to improve functional expression in oocytes) and used for cRNA synthesis in vitro using the MEGAscript kit and T7 RNA polymerase (from Ambion). Oocytes were isolated from Xenopus laevis, treated with collagenase A and maintained at 18° C. in modified Barths' medium. Oocytes were injected with 15 ng SVCT1 or SVCT2 cRNA or water only. The radiotracer uptake and voltage-clamp experiments described below were conducted 2-5 days post-injection in standard medium of composition 100 mM NaCl, 2 mM KCl, 1 mM CaCl2, 1 mM MgCl2, and 10 mM HEPES (buffered to pH 7.5 with Tris base). For low-Na^+ or Na^+-free media, NaCl was replaced with choline chloride. For pH-dependence experiments, Na^+ media were buffered to between pH 5.5 and pH 8.0 using 0-5 mM MES, 0-5 mM HEPES and 0-5 mM Tris base. L-Ascorbic acid-containing solutions were always freshly prepared and used immediately. […] Oocytes were solubilized with 10% SDS and carbon-14 content measured by liquid scintillation counting. A two-microelectrode voltage-clamp was used to measure currents associated with SVCT1 expressed in oocytes. Oocytes were superfused at 22° C. in standard Na^+ medium and clamped at −50 mV. Current was continuously monitored by sampling at 1 Hz. Test solutions were always washed out with substrate-free, Na^+-free medium at pH 7.5 for several minutes. Once again, saturation kinetics data were fit to a modified Hill equation in which I and Imax were replaced by uptake V and maximal velocity Vmax for analysis of radiotracer uptake data.

rat SVCT1 = target: T2, rat SVCT1 (Rattus norvegicus, UniProt Q9WTW7); test: Two-microelectrode voltage-clamp of Xenopus oocytes expressing rat SVCT1; conditions: for evoked current / substrate selectivity (in words): oocytes expressing SVCT1
T2 construct: expressed in transfected cells; host or cells: Xenopus laevis oocytes injected with cRNA
Description: Rat SVCT1 and SVCT2 clones were obtained by isolating SVCT1 cDNA from rat kidney by expression cloning as described in Hediger et al., Methods Enzymol. 296:17-52 (1998). The SVCT2 cDNA was subsequently isolated by PCR-based homology screening of a rat brain cDNA library. […] Radiotracer and voltage-clamp experiments were performed (at 22° C.) in Xenopus oocytes two to seven days after injection with ˜25 ng of SVCT1 or SVCT2 cRNA synthesized in vitro. Radiotracer uptake was determined by incubating 6-10 oocytes for 30 or 60 min in standard 100 mM Na^+ or Na^+-free media with 10-600 μM L-[^14C]ascorbic acid.
Functional characterization of SVCT1 and SVCT2 in Xenopus oocytes—Oocytes were isolated from Xenopus laevis (under 2-aminoethylbenzoate anaesthesia), treated with collagenase A and stored at 18° C. in modified Barths' medium. Oocytes were injected with ≈25 ng of SVCT1 or SVCT2 cRNA synthesized in vitro, or water only (control), and incubated 2-7 days before radiotracer or voltage-clamp experiments were performed. Standard Na^+ uptake medium comprised 100 mM NaCl, 2 mM KCl, 1 mM CaCl2, 1 mM MgCl2, 10 mM HEPES (pH 7.5 with Tris base). For Na^+-free or low-Na^+ media, NaCl was replaced by equimolar choline chloride; likewise, Cl^− was replaced by gluconate for Cl^−-free medium. For pH-sensitivity experiments, Na^+ media were buffered at pH 5.5-8.0 using 0-5 mM MES, 0-5 mM HEPES and 0-5 mM Tris base. L-Ascorbic acid-containing solutions were freshly-prepared (without dithiothreitol) and used immediately.
Radiotracer uptake was determined by incubating 6-10 oocytes for 30 or 60 min in standard Na^+ or Na^+-free media (at 22° C.) with 10-600 μM L-[1-^14C]ascorbic acid (final specific activity 0.3 GBq/mmol). Oocytes were solubilized with 10% SDS and [^14C]-content was measured by liquid scintillation counting. A two-microelectrode voltage-clamp was used to measure currents in control oocytes and oocytes injected with rat SVCT1 or rat SVCT2 cRNA. Microelectrodes (resistance 0.5-5 MΩ) were filled with 3 M KCl. Oocytes were superfused at 22° C. in standard Na^+ medium and clamped at a holding potential (Vh) of −50 mV. For continuous current monitoring at Vh=−50 mV, the current was low-pass filtered at 20 Hz (sampling at 1 Hz). Additionally, step-changes in membrane potential (Vm) were applied (from +50 mV to −150 mV in 20-mV increments), each for a duration of 100 ms, before and after the addition of substrate; current was low-pass filtered at 500 Hz and digitized at 5 kHz. Test solutions were always washed out with substrate-free medium (100 mM choline chloride) at pH 7.5 for several minutes. Steady-state data (obtained by averaging the points over the final 16.7 ms at each Vm step when step-changes were applied) were fitted to equation (1) below, for which I is the evoked current (i.e., the difference in steady-state current measured in the presence and absence of substrate), Imax the derived current maximum, S the concentration of substrate S (Na^+ or L-ascorbic acid),
[formula] the substrate concentration at which current was half-maximal, and nH the Hill coefficient for S. (For radiotracer experiments, I was replaced with velocity V and Imax replaced with the derived maximal velocity, Vmax.)

human SVCT1 [2] = target: T1, human SVCT1; test: Two-microelectrode voltage-clamp of Xenopus oocytes expressing human SVCT1; conditions: −50 mV; for transport / substrate selectivity (in words): 500 μM
Description: Functional characterization in Xenopus oocytes—SVCT1 and SVCT2 cDNAs were subcloned into the pTLN2 vector (to improve functional expression in oocytes) and used for cRNA synthesis in vitro using the MEGAscript kit and T7 RNA polymerase (from Ambion). Oocytes were isolated from Xenopus laevis, treated with collagenase A and maintained at 18° C. in modified Barths' medium. Oocytes were injected with 15 ng SVCT1 or SVCT2 cRNA or water only. The radiotracer uptake and voltage-clamp experiments described below were conducted 2-5 days post-injection in standard medium of composition 100 mM NaCl, 2 mM KCl, 1 mM CaCl2, 1 mM MgCl2, and 10 mM HEPES (buffered to pH 7.5 with Tris base). For low-Na^+ or Na^+-free media, NaCl was replaced with choline chloride. For pH-dependence experiments, Na^+ media were buffered to between pH 5.5 and pH 8.0 using 0-5 mM MES, 0-5 mM HEPES and 0-5 mM Tris base. L-Ascorbic acid-containing solutions were always freshly prepared and used immediately. Radiotracer uptake was determined by incubating 8-12 oocytes for 30 min (within the time-course of linear uptake) in standard Na^+, low-Na^+ or Na^+-free media with 10-500 μM L-[1-^14C]ascorbic acid (final specific activity ≈0.3 GBq/mmol). Oocytes were solubilized with 10% SDS and carbon-14 content measured by liquid scintillation counting. A two-microelectrode voltage-clamp was used to measure currents associated with SVCT1 expressed in oocytes. Oocytes were superfused at 22° C. in standard Na^+ medium and clamped at −50 mV. Current was continuously monitored by sampling at 1 Hz. Test solutions were always washed out with substrate-free, Na^+-free medium at pH 7.5 for several minutes. Once again, saturation kinetics data were fit to a modified Hill equation in which I and Imax were replaced by uptake V and maximal velocity Vmax for analysis of radiotracer uptake data.

T2 sequence (Q9WTW7 whole entry): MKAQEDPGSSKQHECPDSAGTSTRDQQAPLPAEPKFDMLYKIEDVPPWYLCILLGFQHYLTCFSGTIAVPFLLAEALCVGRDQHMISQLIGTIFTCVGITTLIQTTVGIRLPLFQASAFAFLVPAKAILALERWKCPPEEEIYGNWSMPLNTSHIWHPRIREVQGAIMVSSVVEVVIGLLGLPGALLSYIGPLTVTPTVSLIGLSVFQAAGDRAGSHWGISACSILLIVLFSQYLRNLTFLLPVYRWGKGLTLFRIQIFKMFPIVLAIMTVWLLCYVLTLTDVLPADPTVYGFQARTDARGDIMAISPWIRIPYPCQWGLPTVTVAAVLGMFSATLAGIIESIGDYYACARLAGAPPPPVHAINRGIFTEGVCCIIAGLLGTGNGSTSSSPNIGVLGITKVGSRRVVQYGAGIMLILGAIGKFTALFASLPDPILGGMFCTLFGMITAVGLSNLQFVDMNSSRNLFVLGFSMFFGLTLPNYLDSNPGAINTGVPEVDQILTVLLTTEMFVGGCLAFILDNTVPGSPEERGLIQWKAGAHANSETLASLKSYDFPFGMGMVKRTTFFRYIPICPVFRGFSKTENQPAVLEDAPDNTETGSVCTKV
T1 sequence (Q9UHI7 whole entry): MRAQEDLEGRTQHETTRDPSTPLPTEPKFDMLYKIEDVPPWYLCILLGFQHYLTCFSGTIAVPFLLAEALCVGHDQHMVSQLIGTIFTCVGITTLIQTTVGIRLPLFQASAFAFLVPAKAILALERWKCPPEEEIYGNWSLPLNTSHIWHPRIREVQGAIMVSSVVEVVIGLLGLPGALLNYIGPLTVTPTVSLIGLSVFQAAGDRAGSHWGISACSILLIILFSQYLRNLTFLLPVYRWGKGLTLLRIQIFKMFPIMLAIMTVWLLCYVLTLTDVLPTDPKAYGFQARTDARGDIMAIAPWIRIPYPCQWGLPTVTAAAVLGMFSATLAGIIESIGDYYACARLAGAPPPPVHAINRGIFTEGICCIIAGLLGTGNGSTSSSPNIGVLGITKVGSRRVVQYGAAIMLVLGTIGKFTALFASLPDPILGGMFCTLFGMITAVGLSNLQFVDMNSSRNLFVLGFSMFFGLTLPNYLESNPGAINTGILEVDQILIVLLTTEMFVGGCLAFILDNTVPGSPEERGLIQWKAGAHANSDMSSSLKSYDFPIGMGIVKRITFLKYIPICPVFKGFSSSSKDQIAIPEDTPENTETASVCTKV

Compound | inhibition of L-[14C]ascorbic acid uptake (in words) (human SVCT1 [1]; data not shown) | further results
O=C(O)C(=O)O [oxalic acid] | not significantly inhibited | –
CCCCCCCCCCCCCCCC(=O)OC[C@H](O)[C@H]1OC(=O)C(O)=C1O [L-ascorbic acid-6-palmitate] | – | inhibition of L-[14C]ascorbic acid uptake (human SVCT1 [1]; data not shown): 20-30%
Nc1ncnc2c1ncn2[C@@H]1O[C@H](COP(=O)(O)OP(=O)(O)OP(=O)(O)O)[C@@H](O)[C@H]1O [ATP] | none resulted in any significant inhibition | –
OC[C@@H](O)[C@@H](O)[C@H](O)[C@H](O)CO [D-mannitol] | not significantly inhibited | –
Cc1cn([C@H]2C[C@H](O)[C@@H](COP(=O)(O)OP(=O)(O)OP(=O)(O)O)O2)c(=O)[nH]c1=O [dTTP] | none resulted in any significant inhibition | –
O=c1ccn([C@@H]2O[C@H](CO)[C@@H](O)[C@H]2O)c(=O)[nH]1 [uridine] | none resulted in any significant inhibition | –
O=c1cc[nH]c(=O)[nH]1 [uracil] | none resulted in any significant inhibition | evoked current / substrate selectivity (in words) (rat SVCT1): excluded
[Na+] [Na^+] | – | K0.5 for Na^+ (human SVCT1 [1]; L-ascorbic acid uptake): 15 to 25 mM; K0.5 for Na^+ (concentration at which current was half-maximal) (rat SVCT1; at 200 μM L-ascorbic acid, −50 mV): 40 mM; Hill coefficient (nH) (rat SVCT1; evoked currents, −50 mV): ≈ 2
O=CC[C@@H](O)[C@H](O)[C@H](O)CO [2-deoxy-D-glucose] | not significantly inhibited | –
O=C1O[C@H]([C@H](O)CO)C(O)=C1O [D-isoascorbic acid] | – | evoked current relative to that of L-ascorbic acid (human SVCT1 [2]; each at 500 μM): about 15%; K0.5 based on evoked currents (human SVCT1 [2]): 2.7 ± 1.2 mM; evoked current relative to that for L-ascorbic acid (rat SVCT1; substrate selectivity, FIG. 4F): ≈ 30%
Cc1c[nH]c(=O)[nH]c1=O [thymine] | none resulted in any significant inhibition | –
CC(O)C(=O)O (centres unmarked) [lactic acid] | not significantly inhibited | –
O=C[C@@H](O)[C@@H](O)[C@@H](O)CO [L-ribose] | not significantly inhibited | –
O=C(O)CCC(=O)O [succinic acid] | not significantly inhibited | –
Nc1ncnc2c1ncn2[C@H]1C[C@H](O)[C@@H](COP(=O)(O)OP(=O)(O)OP(=O)(O)O)O1 [dATP] | none resulted in any significant inhibition | –
O=c1[nH]c(=O)c2[nH]c(=O)[nH]c2[nH]1 [uric acid] | not significantly inhibited | –

Compound | inhibition of L-[14C]ascorbic acid uptake (in words) (human SVCT1 [1]; data not shown) | further results
Nc1nc2c(ncn2[C@H]2C[C@H](O)[C@@H](COP(=O)(O)OP(=O)(O)OP(=O)(O)O)O2)c(=O)[nH]1 [dGTP] | none resulted in any significant inhibition | –
O=C[C@H](O)[C@H](O)[C@H](O)CO [D-ribose] | not significantly inhibited | –
O=C1O[C@H]([C@@H](O)CO)[C@H](O)[C@@H]1O [L-gulono-γ-lactone] | – | transport / substrate selectivity (in words) (human SVCT1 [2]): excluded; evoked current / substrate selectivity (in words) (rat SVCT1): excluded
Nc1nc2c(ncn2[C@@H]2O[C@H](CO)[C@@H](O)[C@H]2O)c(=O)[nH]1 [guanosine] | none resulted in any significant inhibition | –
Nc1ncnc2c1ncn2[C@@H]1O[C@H](CO)[C@@H](O)[C@H]1O [adenosine] | none resulted in any significant inhibition | –
Nc1ncnc2nc[nH]c12 [adenine] | none resulted in any significant inhibition | –
O=c1ccn([C@@H]2O[C@H](COP(=O)(O)OP(=O)(O)OP(=O)(O)O)[C@@H](O)[C@H]2O)c(=O)[nH]1 [UTP] | none resulted in any significant inhibition | –
Nc1ncnc2c1ncn2[C@@H]1O[C@H](COP(=O)(O)OP(=O)(O)O)[C@@H](O)[C@H]1O [ADP] | none resulted in any significant inhibition | –
O=C(CO)[C@@H](O)[C@H](O)[C@H](O)CO [D-fructose] | not significantly inhibited | –
Nc1ccn([C@H]2C[C@H](O)[C@@H](COP(=O)(O)OP(=O)(O)OP(=O)(O)O)O2)c(=O)n1 [dCTP] | none resulted in any significant inhibition | –
Nc1nc2c(ncn2[C@@H]2O[C@H](COP(=O)(O)OP(=O)(O)OP(=O)(O)O)[C@@H](O)[C@H]2O)c(=O)[nH]1 [GTP] | none resulted in any significant inhibition | –
Nc1ncnc2c1ncn2C1CC(O)C(CO)O1 (centres unmarked) [2-deoxyadenosine] | none resulted in any significant inhibition | –
O=C1O[C@H]([C@@H](O)CO)C(O)=C1OP(=O)(O)O [L-ascorbic acid-2-phosphate] | – | transport / substrate selectivity (in words) (human SVCT1 [2]): barely transported
[Li+] [Li^+] | – | ability to substitute for Na^+ in driving SVCT1-mediated transport (human SVCT1 [1]): unable to substitute for Na^+
OC[C@H]1O[C@@H](n2cnc3c(O)ncnc32)[C@H](O)[C@@H]1O [inosine] | none resulted in any significant inhibition | –
Nc1ncnc2c1ncn2[C@@H]1O[C@H](COP(=O)(O)O)[C@@H](O)[C@H]1O [AMP] | none resulted in any significant inhibition | –
